These are literature values, as cited in patent US20210315194A1, “MOSQUITO ATTRACTANT FORMULATIONS AND USES THEREOF” (ACTIVE SCENT AB, priority 2018, published 2021).

The structures appear in SMILES notation.

The series relates to wild egg-laying Culex mosquitoes. To be noted: traps baited with 1 mg of the compound.

With `CCCCCCCCC=O` [nonanal], the “attraction to baited traps” value is listed as “attract”.
